# ChEMBL document CHEMBL5321246, “Aurones: A Promising Scaffold to Inhibit SARS-CoV-2 Replication” (J Nat Prod, 2023)
# Tested on: SARS-CoV-2
# Experiment: Antiviral activity against SARS-CoV-2 infected in Vero E6 cells assessed as inhibition of viral replication preincubated with cells for 1 hr and subsequent viral infection for 2 hrs followed by replacement with fresh medium containing compounds and measured after 24 hrs by qRT-PCR analysis
# Type: functional, organism-based
# Settings: Severe acute respiratory syndrome coronavirus 2, Vero C1008
structure (smiles),measurement,value
O=c1c(O)c(-c2cc(O)c(O)c(O)c2)oc2cc(O)cc(O)c12 [MYRICETIN],EC50,8 µM
